# Article PMC5995184, “Potent anti-leukemic activity of a specific cyclin-dependent kinase 9 inhibitor in mouse models of chronic lymphocytic leukemia” (Oncotarget, 2018)
# Where two headings read alike, the source gives them in different places.
# Legend:
# CDK1-Cyclin B1 = target: T1, CDK1-Cyclin B1 (Homo sapiens, UniProt P06493); experiment: FRET-based LANCE Ultra in vitro enzymatic kinase assay, CDK1; assay type: biochemical
# T1 construct: purchased Carna Biosciences
# Procedure: (§1) IC50 values for CDK inhibitors were determined using the fluorescence resonance energy transfer (FRET)-based LANCE Ultra KinaSelect Ser/Thr kit (Perkin Elmer). Kinase activity and inhibition were measured according to the manufacturer’s instructions and as previously described. […] FRET signals were recorded in a time-resolved manner in a Perkin Elmer EnVision reader. Purified cyclin-kinase pairs were obtained from the following suppliers: Carna Biosciences (CDK1-Cyclin B1, CDK6-Cyclin D3, CDK7-Cyclin H-MAT1), ProQinase (CDK2-Cyclin A) and Invitrogen (CDK9-Cyclin T1).
# (§2) Data were analyzed with GraphPad Prism 7 software. Differences were assessed by unpaired or paired Student t tests if not indicated otherwise. Two-sided probabilities of less than 0.05 were considered significant. Nonlinear regression sigmoidal dose-response curve fit was used to determine the IC50 values and to generate graphs.
# CDK7-Cyclin H-MAT1 = target: T2, CDK7-Cyclin H-MAT1 (Homo sapiens, UniProt P50613); experiment: FRET-based LANCE Ultra in vitro enzymatic kinase assay, CDK7; assay type: biochemical
# T2 construct: purchased Carna Biosciences
# Procedure: as §1, §2
# MEC-1 cells = experiment: MEC-1 cell line apoptosis, viability, MCL-1/BCL-2 and cell cycle (flow cytometry); assay type: cell-based
# Procedure: (§3) The MEC-1 cell line was obtained from the DSMZ (Braunschweig, Germany) and was cultured in RPMI (10% fetal bovine serum). A LDC526 stock solution was prepared with DMSO, diluted and added to the cultures to reach the specified concentrations. Samples (percentage of CD19+CD5+ CLL cells >90%) of n=37 CLL patients (Table 1) and n=6 healthy normal donor controls were used for experiments after obtaining informed consent according to institutional guidelines, approved by the Ethics Commission of the University of Essen-Duisburg. Peripheral blood mononuclear cells (PBMC) were isolated using Lymphoprep ([…] Technologies, Cologne, Germany) density gradient centrifugation and were used directly for NSG transplantation or in vitro experiments. Untouched normal donor B cells were isolated with a B cell isolation kit (Miltenyi, Bergisch Gladbach, Germany) according to the manufacturer’s instructions. For in vitro experiments, cells were maintained in RPMI supplemented with 10% fetal bovine serum, penicillin and streptomycin.
# Apoptosis and cell death were determined by using Annexin V (BD Biosciences, Heidelberg, Germany) and 4′,6-Diamidin-2-phenylindol (DAPI, Sigma-Aldrich) staining. Erythrocytes of murine peripheral blood samples were lysed with NH4Cl hypotonic solution. Single cell suspensions of murine spleens were prepared as previously described. Murine cells were stained with antibodies directed against murine CD3 (clone 145-2C11), CD5 (53-7.3) and CD19 (1D3), respectively. For the detection of human cells in NSG spleens antibodies against human CD3 (clone SK7), CD4 (SK3), CD5 (L17F12), CD8 (SK1), CD19 (J3-119 or SJ25C1) and CD45 (2D1) were used (purchased from BD Bioscience, Biolegend and Beckman Coulter). Flow cytometric analysis was carried out on a LSRII flow cytometer (BD Biosciences, Heidelberg, Germany). Flow cytometric data were analyzed with BD FACSDiva or FlowJo software (FLOWJO, LLC, Ashland, OR, USA). Intracellular staining for MCL-1 and BCL-2 (anti-MCL-1 [clone D2W9E, Cell Signaling Technology, Leiden, The Netherlands] and matched isotype control [clone DA1E, Cell Signaling Technology]; anti-BCL-2 [clone Bcl-2/100, BD Bioscience] and matched isotype control [clone MOPC-21, BD Bioscience]) within MEC-1 and primary CLL cells was performed with the FoxP3 / Transcription factor staining buffer set (eBioscience/Thermo Fisher Scientific, Dreieich, Germany) according to the manufacturer’s instructions. Before permeabilization and antibody incubation cells were stained with a fixable viability dye (eFluor 450, eBioscience/Thermo Fisher Scientific). Before adding the anti-MCL-1 and anti-BCL-2 antibodies permeabilized cells were blocked with 2% mouse serum and 2% rabbit serum (Sigma-Aldrich) in permeabilization buffer. Intracellullar murine lymphocyte staining for Bcl-2 was carried out with the BD Cytofix/Cytoperm kit according to the manufacturer’s instructions. A Hamster Anti-mouse Bcl-2 (clone 3F119, BD Biosciences) and a corresponding isotype control (clone A19-3) were used. Dead cells and doublets were excluded by and FSC/SSC gating and positive DAPI or eFluor 450 viability dye staining, respectively. To assess the impact of LDC526 on the cell-cycle status of MEC-1 cells we used the BrdU Flow Kit according to the manufacturer’s protocol (BD Bioscience). […]
# Data were analyzed with GraphPad Prism 7 software. Differences were assessed by unpaired or paired Student t tests if not indicated otherwise. […]
# [1] = tested on: primary CLL cells (CLL PBMC); experiment: Primary CLL cells apoptosis, viability, MCL-1/BCL-2 (flow cytometry); assay type: cell-based, human; settings: for IC50: Homo sapiens, CLL cell, read-out: IC50, absolute number of viable CLL PBMC
# Procedure: as §3
# Apoptosis and cell death were determined by using Annexin V (BD Biosciences, Heidelberg, Germany) and 4′,6-Diamidin-2-phenylindol (DAPI, Sigma-Aldrich) staining. Erythrocytes of murine peripheral blood samples were lysed with NH4Cl hypotonic solution. Single cell suspensions of murine spleens were prepared as previously described. Murine cells were stained with antibodies directed against murine CD3 (clone 145-2C11), CD5 (53-7.3) and CD19 (1D3), respectively. For the detection of human cells in NSG spleens antibodies against human CD3 (clone SK7), CD4 (SK3), CD5 (L17F12), CD8 (SK1), CD19 (J3-119 or SJ25C1) and CD45 (2D1) were used (purchased from BD Bioscience, Biolegend and Beckman Coulter). Flow cytometric analysis was carried out on a LSRII flow cytometer (BD Biosciences, Heidelberg, Germany). Flow cytometric data were analyzed with BD FACSDiva or FlowJo software (FLOWJO, LLC, Ashland, OR, USA). Intracellular staining for MCL-1 and BCL-2 (anti-MCL-1 [clone D2W9E, Cell Signaling Technology, Leiden, The Netherlands] and matched isotype control [clone DA1E, Cell Signaling Technology]; anti-BCL-2 [clone Bcl-2/100, BD Bioscience] and matched isotype control [clone MOPC-21, BD Bioscience]) within MEC-1 and primary CLL cells was performed with the FoxP3 / Transcription factor staining buffer set (eBioscience/Thermo Fisher Scientific, Dreieich, Germany) according to the manufacturer’s instructions. Before permeabilization and antibody incubation cells were stained with a fixable viability dye (eFluor 450, eBioscience/Thermo Fisher Scientific). Before adding the anti-MCL-1 and anti-BCL-2 antibodies permeabilized cells were blocked with 2% mouse serum and 2% rabbit serum (Sigma-Aldrich) in permeabilization buffer. Intracellullar murine lymphocyte staining for Bcl-2 was carried out with the BD Cytofix/Cytoperm kit according to the manufacturer’s instructions. A Hamster Anti-mouse Bcl-2 (clone 3F119, BD Biosciences) and a corresponding isotype control (clone A19-3) were used. Dead cells and doublets were excluded by and FSC/SSC gating and positive DAPI or eFluor 450 viability dye staining, respectively. To assess the impact of LDC526 on the cell-cycle status of MEC-1 cells we used the BrdU Flow Kit according to the manufacturer’s protocol (BD Bioscience). BrdU was added to the media 30 minutes before commencing the analysis.
# as §2
# [2] = 4 hours, increasing concentrations
# T1 sequence (P06493 whole entry): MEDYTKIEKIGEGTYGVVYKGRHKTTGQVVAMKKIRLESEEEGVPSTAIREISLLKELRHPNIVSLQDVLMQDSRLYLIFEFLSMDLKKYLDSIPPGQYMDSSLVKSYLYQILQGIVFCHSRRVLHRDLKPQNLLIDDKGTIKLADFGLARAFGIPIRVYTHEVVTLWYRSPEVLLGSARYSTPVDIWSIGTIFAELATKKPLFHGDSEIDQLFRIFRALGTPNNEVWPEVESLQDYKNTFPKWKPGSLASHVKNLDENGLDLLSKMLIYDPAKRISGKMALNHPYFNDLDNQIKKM
# T1 sequence (P14635 whole entry partner): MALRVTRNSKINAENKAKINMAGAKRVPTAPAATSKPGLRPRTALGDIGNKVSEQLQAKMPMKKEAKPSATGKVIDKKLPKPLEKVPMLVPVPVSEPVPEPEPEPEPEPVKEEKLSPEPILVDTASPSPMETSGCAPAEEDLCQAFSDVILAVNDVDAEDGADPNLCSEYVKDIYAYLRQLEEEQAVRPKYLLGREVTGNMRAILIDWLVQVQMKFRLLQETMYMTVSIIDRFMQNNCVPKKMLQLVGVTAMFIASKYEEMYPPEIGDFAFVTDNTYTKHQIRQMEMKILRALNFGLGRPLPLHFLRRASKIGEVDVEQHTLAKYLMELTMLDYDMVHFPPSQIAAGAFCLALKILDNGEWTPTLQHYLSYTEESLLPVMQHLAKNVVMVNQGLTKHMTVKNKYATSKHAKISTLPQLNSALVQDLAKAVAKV
# T2 sequence (P50613 whole entry): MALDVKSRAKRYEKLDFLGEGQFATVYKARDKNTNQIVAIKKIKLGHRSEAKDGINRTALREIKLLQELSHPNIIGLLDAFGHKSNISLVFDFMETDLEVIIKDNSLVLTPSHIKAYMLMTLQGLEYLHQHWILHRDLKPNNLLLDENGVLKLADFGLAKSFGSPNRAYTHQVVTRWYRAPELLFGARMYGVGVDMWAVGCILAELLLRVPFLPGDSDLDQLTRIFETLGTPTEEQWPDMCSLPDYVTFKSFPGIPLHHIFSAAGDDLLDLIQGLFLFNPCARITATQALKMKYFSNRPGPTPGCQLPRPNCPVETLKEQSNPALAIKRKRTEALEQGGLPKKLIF
# T2 sequence (P51946 whole entry partner): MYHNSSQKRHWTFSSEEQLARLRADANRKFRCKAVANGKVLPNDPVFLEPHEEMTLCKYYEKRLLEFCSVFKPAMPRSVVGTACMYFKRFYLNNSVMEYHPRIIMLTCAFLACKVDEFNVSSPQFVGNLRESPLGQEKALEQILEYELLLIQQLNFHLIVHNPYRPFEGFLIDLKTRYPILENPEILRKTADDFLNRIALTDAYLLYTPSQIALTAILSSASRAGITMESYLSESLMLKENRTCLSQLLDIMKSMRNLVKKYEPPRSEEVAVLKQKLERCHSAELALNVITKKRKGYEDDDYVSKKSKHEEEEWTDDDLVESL
# T2 sequence (P51948 whole entry partner): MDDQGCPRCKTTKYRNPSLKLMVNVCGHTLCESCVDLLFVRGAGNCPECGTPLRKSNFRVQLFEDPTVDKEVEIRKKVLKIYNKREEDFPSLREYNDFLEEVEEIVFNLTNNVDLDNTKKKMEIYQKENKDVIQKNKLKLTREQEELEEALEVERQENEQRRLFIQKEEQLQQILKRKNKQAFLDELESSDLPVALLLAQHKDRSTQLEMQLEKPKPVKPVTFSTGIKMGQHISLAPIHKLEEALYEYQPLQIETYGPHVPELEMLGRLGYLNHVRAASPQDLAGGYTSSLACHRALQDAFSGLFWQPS
structure (smiles),measurement,setting,value
"COc1cc(F)ccc1-c1ncnc(Nc2cccc(CS(N)(=O)=O)c2)n1 [LDC526, (3-((4-(4-fluoro-2-methoxyphenyl)-1,3,5-triazin-2-yl)amino)phenyl)methane-sulfonamide]",selectivity versus CDK9 compared to CDK1,CDK1-Cyclin B1,82 fold
same,IC50,CDK7-Cyclin H-MAT1,> 10000 nM
same,"MEC-1 apoptosis (Annexin V+, DAPI-)","MEC-1 cells; 4 hours, 500 nM and 1 μM",significantly increased MEC-1 apoptosis
same,intracellular MCL-1 protein levels in MEC-1,MEC-1 cells; [2],reduced
same,MEC-1 S-phase entry (BrdU),"MEC-1 cells; 24 hours, 10 μM",significantly decreased
same,MEC-1 cell cycle (BrdU),"MEC-1 cells; 24 hours, concentrations up to 1 μM",did not alter the cell cycle
same,IC50,"MEC-1 cells; Homo sapiens, MEC1, 48 hours incubation, read-out: IC50, MEC-1 absolute viable cell numbers",550 nM
same,apoptosis of primary CLL PBMCs (Annexin V),"[1]; 4 hours, 500 and 1000 nM",significantly increased percentages of apoptosis
same,BCL-2 levels in primary CLL cells,[1]; [2],not significantly altered
same,MCL-1 protein levels in primary CLL cells,[1]; [2],significantly decreased MCL-1 protein levels
same,IC50,[1]; 24 hours incubation,340 nM
same,IC50,[1]; 48 hours incubation,280 nM
same,"LDC526-induced effect between prognostic CLL subgroups (FISH, CD38, Binet, therapy)",[1]; high-risk versus low-risk,no statistically significant differences
